One series in a line: Trypan blue assay, HaCaT. The series is classed as cell-based, human. Particulars: human, HaCaT cells, compound at IC50 concentration. How it is done:
(§1) In order to estimate the tumor and normal cell population density and their viability after treatment with compounds 1–3, 8, and 9, the trypan blue dye exclusion assay was performed. The live cell number of all cancerous cells incubated for 72 h with the studied thioureas was considerably lower in comparison with the controls (Table 2; Figure S1A). The highest reduction in cell amount was denoted for both colon SW480 and SW620 cells treated with the dichlorophenyl derivative 2, and it accounted for 93%. […] Similarly, a noticeable decline in both colon cancer cell populations was observed after treatment with the ortho-substituted compound 8. The number of live cells equaled 12% and 18%, respectively, as compared to controls. This thiourea also led to a reduction of PC3 cells of 38%, and leukemia K-562 cell lines of 27%. The number of SW620 and PC3 cells decreased by 72% and 63% in the presence of para-substituted compound 9. However, the reducing influence of this thiourea on the number of other cancerous cells was at the level of 21–32%. […] A significant effect on the other studied pathological cells was also noticed and accounted for 32–46%. Furthermore, the derivative 3 reduced the amount of live cancer cells by 32–59%, of which its decreasing impact on colon cancer cells was the greatest.
(§2) The live cell count was assessed by the trypan blue exclusion dye assay using an automated cell counter (CountessTM Invitrogen, Waltham, MA, USA). Untreated cells were used as the control.

Another series deals with HaCaT cells. The experiment in a line: Trypan blue assay, HaCaT. The series is classed as cell-based, human. Particulars: 72 h, compound at IC50 concentration. On the procedure:
as §1, §2

The subject of the next series is PC3 cells. As to the kind of experiment: MTT assay, PC3. The series is classed as cell-based. To be noted: Homo sapiens, PC-3, 72 h, 50% growth inhibition. On the procedure:
As a first step in assessing their cytotoxic properties, all thioureas of the series were assayed against four human carcinoma cell lines, such as SW480 (primary colon cancer), SW620 (metastatic colon cancer), PC3 (metastatic prostate cancer), and K-562 (chronic myelogenous leukemia), as well as against the normal cell line HaCaT (immortalized human keratinocytes). Table 1 lists the compound concentrations that produced 50% of growth inhibition (IC50, μM), generated by the MTT method, in comparison with two commonly used chemotherapeutic agents, doxorubicin and cisplatin.
The human primary (SW480), metastatic (SW620) colon cancer, metastatic prostate cancer (PC3), chronic myelogenous leukemia (K-562), and human immortal keratinocyte (HaCaT) cell lines were purchased from the American Type Culture Collection (ATCC, Rockville, MD, USA). The cells were cultured in medium according to protocols (MEM for SW480 and SW620, RPMI 1640 for PC3 and K-562, and DMEM for HaCaT cells), supplemented with 10% FBS, penicillin (100 U/mL) and streptomycin (100 μg/mL), and cultured in a 37 °C/5% CO2 humidified incubator. The cells were cultured until appropriate confluence was achieved (80–90%). Next, they were harvested by treatment with 0.25% trypsin (Gibco Life Technologies, Waltham, MA, USA) excluding the non-adherent K-562 cell line and used for studies.
Cells without the studied compounds in medium were used as a control.
The cell viability was assessed by determination of MTT salt [3-(4,5-dimethylthiazol-2-yl)-2,5-diphenyltetrazoliumbromide] conversion by mitochondrial dehydrogenase. The MTT assay was performed as previously described. Alternatively, non-adherent leukemic cells were centrifuged in a microplate centrifuge (400× g, 5 min) during the collection stages. Experiments were repeated three times. Cell viability was presented as a percent of MTT reduction in the treated cells versus the control cells. The number of viable cells cultured without the studied compounds was assumed as 100%. A decreased relative MTT level indicated decreased cell viability. Thiourea compounds with the highest cytotoxic potential assessed by MTT determination (with the lowest IC50) were chosen for subsequent assessments of cytotoxicity mechanisms.
A general note: Formazan colour is commonly taken as a measure of viable cells.

In a further series the test system is K-562 cells. As to the kind of experiment: Annexin V-FITC/PI flow cytometry, K-562. The series is classed as cell-based, human. Particulars: K-562, 72 h, IC50 concentration. How it is done:
(§3) To estimate the mechanism of anticancer activity of the selected compounds 1–3, 8, and 9, their effect on both early and late apoptosis was evaluated by flow cytometry analysis. […] Additionally, visible late apoptosis-inducing properties in these cell lines were denoted for the compound 9 (47% ± 3.0%), which was twice as strong towards the colon tumor cells mentioned above. The apoptotic properties of analogs 3 and 8 in K-562 cells varied from 30% ± 1.6% to 33% ± 2.3%. […] Whereas the apoptosis-generating influence of derivatives 2 and 3 on normal keratinocytes was higher (29% and 23%), their selectivity measured by MTT methods is favorable. The obtained results are in agreement with the IC50 values assigned to pathological cancer cell lines. The cells were cultured and harvested under the conditions described in Section 3.2.1. […] The effect of these compounds on the process of early and late apoptosis and necrosis was determined as described previously by dual staining with Annexin V:FITC and propidium iodide, according to the manufacturer’s protocol (Becton Dickinson). The cells that were Annexin V:FITC positive and PI negative were identified as early apoptotic, and Annexin V:FITC and PI positive as late apoptotic or necrotic.
Background: Flow cytometry measures light scatter and fluorescence of single cells or particles in a stream.

The subject of another series is IL-6 level, HaCaT cells. The experiment in a line: IL-6 level ELISA, HaCaT. The series is classed as cell-based, human. Particulars: 72 h, compound at IC50 concentration. How it is done: (§4) Because of the low secretion of IL-6 by leukemic cells compared to solid tumors, and in addition to the lack of IL-6 receptors in K-562 cells, studies of the effect of derivatives 1–3, 8, and 9 on the inhibition of IL-6 release were carried out on primary and secondary solid tumor cells (SW480, SW620, and PC3). A remarkable inhibition of the IL-6 level was denoted for both colon cancer cell lines. Compound 2, identified as the strongest inhibitor, reduced the interleukin level by 54% (in SW480 cells) and 63% (SW620 cells). A significant effect was also observed in these cells for its structural isomer 3 (39% and 23% of inhibition, respectively). Additionally, compound 3 considerably affected the IL-6 level produced by PC3 cells, and reduced it by 33%. Similarly, the treatment with derivative 1 was effective for both colon cancer cells. In its presence, IL-6 release decreased by 28–36%, as compared to controls. For monosubstituted derivatives 8 and 9, the observed IL-6-reducing influence was weaker. They both inhibited IL-6 secretion in SW480 and SW620 cell lines by 25–32%. In contrast to compound 9, thiourea 8 additionally diminished the cytokine level in PC3 cells by 26%.
(§5) The IL-6 concentration in all studied cancer cells and normal HaCaT cell lines was measured by an ELISA kit (Diaclon SAS Besancon CEDEX, Besançon, France). […] IL-6 in cell culture supernatant was measured using the enzyme-linked immunosorbent assay in accordance with the manufacturer’s protocol.
For orientation: In an ELISA, binding on a coated surface is turned into a signal by an enzyme label.

Series [1] in a line: Annexin V-FITC/PI flow cytometry, HaCaT. The series is classed as cell-based, human. The arrangement: viability at 72 h: concentration or dose not given beside the values. Particulars: human, HaCaT cells (normal keratinocytes), representative dot plot, Figure 4E, read-out: LL quadrant, viable cells. How it is done: as §3
For a further series, the system named is SW620 cells. The experiment in a line: Annexin V-FITC/PI flow cytometry, SW620. The series is classed as cell-based, human. To be noted: SW620, 72 h, IC50 concentration. How it is done:
as §3

In a further series the test system is IL-6 level, PC3 cells. The experiment in a line: IL-6 level ELISA, PC3. The series is classed as cell-based, human. Particulars: PC3, 72 h; for IL-6 Concentration: compound at IC50 concentration, ELISA; for reduction of IL-6 level: IC50 concentration, vs control. On the procedure: as §4, §5

Structures are written as SMILES. Where “and” joins values, the source holds several entries; their conditions need not be identical. Equal entries are not always repeated. Some results are limits rather than exact numbers.

Usually IC50 stands for the concentration that gives 50% inhibition.

For `Fc1ccc(NC(=S)Nc2cccc(C(F)(F)F)c2)cc1Cl` [Compound 1, 1-(3-chloro-4-fluorophenyl)-3-[3-(trifluoromethyl)phenyl]thiourea], the viability at 72 h in “Trypan blue assay, HaCaT” amounted to 97 ± 1.33%; in series [1] it was 78.2%. Also, the “Cell Number × 10^5” value in the series on HaCaT cells was 6.5 ± 0.15 × 10^5. This molecule also registered a half-inhibitory concentration (IC50) in the series on PC3 cells of 53.6 ± 2.94 µM. The figures for the “cells in late apoptosis” value in the series with K-562 cells and in the series with SW620 cells were 74% ± 3.8% and 57% ± 1.2%, respectively. For the same molecule, the “IL-6 Concentration” value in the series with IL-6 level, HaCaT cells turned out to be 8.7 ± 0.03 pg/mL; in the series with IL-6 level, PC3 cells it was 9.6 ± 0.02 pg/mL.

In the case of `FC(F)(F)c1cccc(NC(=S)Nc2ccc(Cl)c(Cl)c2)c1` [Compound 2, 1-(3,4-dichlorophenyl)-3-[3-(trifluoromethyl)phenyl]thiourea], the viability at 72 h in the series “Trypan blue assay, HaCaT” amounted to 84 ± 1.03%; in series [1], 57.6%. In the series with HaCaT cells, the “Cell Number × 10^5” value was 1.6 ± 0.31 × 10^5. Moreover, in the series on PC3 cells, inhibition was half-maximal at 31.7 ± 2.07 µM (IC50). Moreover, the “cells in late apoptosis” value is 73% and 73% ± 2.0% in the series on K-562 cells; 99% ± 0.5% in the series with SW620 cells. Further, the “IL-6 Concentration” value with IL-6 level, HaCaT cells stood at 9.1 ± 0.03 pg/mL; in the series with IL-6 level, PC3 cells it was 9.1 ± 0.04 pg/mL.

Turning to `FC(F)(F)c1cccc(NC(S)=Nc2ccc(Cl)cc2Cl)c1` [Compound 3, 1-(2,4-dichlorophenyl)-3-[3-(trifluoromethyl)phenyl]thiourea], the viability at 72 h worked out at 96 ± 3.01% in the series “Trypan blue assay, HaCaT” and 65.7% in series [1]. Besides, the “Cell Number × 10^5” value in the series on HaCaT cells was 7.8 ± 0.14 × 10^5. For the same molecule, it took 13.7 ± 7.04 µM to reach half-maximal inhibition in the series on PC3 cells (IC50). The “IL-6 Concentration” value in the series with IL-6 level, HaCaT cells was found to be 8.9 ± 0.01 pg/mL; in the series on IL-6 level, PC3 cells, 7.3 ± 0.06 pg/mL. Also, the “cells in late apoptosis” value with SW620 cells is at most 26%. The “reduction of IL-6 level” value in the series on IL-6 level, PC3 cells amounted to 33%.

With `FC(F)(F)c1ccc(NC(=S)Nc2cccc(C(F)(F)F)c2)cc1` [Compound 8, 1-[3-(trifluoromethyl)phenyl]-3-[4-(trifluoromethyl)phenyl]thiourea], the viability at 72 h in the series “Trypan blue assay, HaCaT” is 98 ± 1.02%; in series [1] it was 70.1%. Moreover, the “Cell Number × 10^5” value in the series on HaCaT cells is on record as 4.9 ± 0.28 × 10^5. In the series on PC3 cells, the IC50 was 6.9 ± 1.64 µM. Moreover, the “IL-6 Concentration” value was found to be 9.1 ± 0.06 pg/mL in the series with IL-6 level, HaCaT cells and 8.1 ± 0.08 pg/mL in the series with IL-6 level, PC3 cells. In the series on SW620 cells, the “cells in late apoptosis” value is at most 26%. Also, in the series on IL-6 level, PC3 cells, the “reduction of IL-6 level” value came out at 26%.

For `FC(F)(F)c1cccc(NC(=S)Nc2ccc(Cl)cc2)c1` [Compound 9, 1-(4-chlorophenyl)-3-[3-(trifluoromethyl)phenyl]thiourea], the viability at 72 h amounted to 98 ± 1.5% in “Trypan blue assay, HaCaT” and 79.5% in series [1]. The “Cell Number × 10^5” value in the series with HaCaT cells is listed as 8.6 ± 0.12 × 10^5. The same molecule had a half-inhibitory concentration (IC50) in the series on PC3 cells of 22.6 ± 1.25 µM. Further, the “cells in late apoptosis” value in the series on K-562 cells was 47% ± 3.0%; with SW620 cells it was at most 26%. The “IL-6 Concentration” value in the series with IL-6 level, HaCaT cells amounted to 9.0 ± 0.01 pg/mL; in the series with IL-6 level, PC3 cells, 9.9 ± 0.03 pg/mL.

For the origin of these results see paper PMC8623398, “Investigation of the Mechanisms of Cytotoxic Activity of 1,3-Disubstituted Thiourea Derivatives” (Pharmaceuticals, 2021).
